According to US10577363B2, “Substituted piperidine compounds” (EPIZYME, INC., priority 2014, dated 2020):

Legend:
[1] = molecular target: T1, SMYD3 (Homo sapiens (Human), UniProt Q9H7B4); assay: SMYD3 biochemical assay (SPA, 3H-SAM methylation of MEKK2 protein substrate)
Outline: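 Native full-length human SMYD3 (E. coli-expressed, tags removed) was preincubated with compound for 30 min at room temperature in 25 mM Tris-Cl pH 8.0, 1 mM TCEP, 0.005% BSG, 0.005% Tween 20. Reaction was started with 3H-SAM plus GST-MEKK2, quenched with 100 uM unlabeled SAM, and read by SPA scintillation counting.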

[2] = molecular target: T1, SMYD3; assay: SMYD3 cell assay (Trimethyl-MEKK2 In-Cell Western in 293T/17 cells); type: cell-based
Outline: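 In-Cell Western ratio of trimethyl-Lys260 MEKK2 to anti-flag signal; percent inhibition from DMSO and maximum-inhibition controls, IC50 by non-linear regression, triplicates.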

[3] = read-out: SMYD3 Biochem IC50 (μM)*
[4] = 293T/17 cells, read-out: SMYD3 Cell IC50 (μM)*
[5] = Table 1A, IC50 values are an average of n = 1 to n = 50, read-out: SMYD3 Cell IC50
[6] = Table 1A, IC50 values are an average of n = 1 to n = 50, read-out: SMYD3 Biochem IC50

T1 sequence (Q9H7B4 whole entry): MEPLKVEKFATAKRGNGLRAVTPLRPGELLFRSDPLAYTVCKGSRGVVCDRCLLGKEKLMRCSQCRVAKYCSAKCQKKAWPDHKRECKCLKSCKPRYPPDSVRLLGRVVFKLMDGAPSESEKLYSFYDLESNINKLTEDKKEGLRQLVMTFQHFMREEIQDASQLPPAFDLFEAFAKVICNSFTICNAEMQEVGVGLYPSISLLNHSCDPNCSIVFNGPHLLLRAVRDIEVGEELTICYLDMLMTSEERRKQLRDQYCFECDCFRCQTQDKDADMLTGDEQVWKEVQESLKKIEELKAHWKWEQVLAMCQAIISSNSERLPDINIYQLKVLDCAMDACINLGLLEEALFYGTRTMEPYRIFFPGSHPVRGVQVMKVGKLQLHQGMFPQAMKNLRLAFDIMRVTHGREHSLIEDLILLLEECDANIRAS

Compound	IC50 [1, 3]	IC50 [2, 4]	IC50 ([1]; read-out: SMYD3 Biochem IC50)	IC50 [2, 5]	IC50 [1, 6]
C[C@@H]1C[C@H](NC(=O)c2cc(C3CC3)on2)CCN1S(=O)(=O)c1ccc(NCCN2CCOCC2)nc1 [compound 459, 5-cyclopropyl-N-((2R,4R)-2-methyl-1-((6-((2-morpholinoethyl)amino)pyridin-3-yl)sulfonyl)piperidin-4-yl)isoxazole-3-carboxamide]	2.36 µM	4.58 µM	–	–	–
C[C@@H]1C[C@H](NC(=O)c2cc(C3CC3)on2)CCN1S(=O)(=O)c1ccc(N(C)CCN2CCOCC2)nc1 [compound 460, 5-cyclopropyl-N-((2R,4R)-2-methyl-1-((6-(methyl(2-morpholinoethyl)amino)pyridin-3-yl)sulfonyl)piperidin-4-yl)isoxazole-3-carboxamide]	> 10 µM	> 10 µM	–	–	–
C[C@H]1C[C@@H](NC(=O)c2cc(C3CC3)on2)CCN1S(=O)(=O)c1ccc(N(C)CCN)nc1 [compound 461, N-((2S,4S)-1-((6-((2-aminoethyl)(methyl)amino)pyridin-3-yl)sulfonyl)-2-methylpiperidin-4-yl)-5-cyclopropylisoxazole-3-carboxamide]	0.0142 µM	3.85 µM	–	–	–
C[C@@H]1C[C@H](NC(=O)c2cc(C3CC3)on2)CCN1S(=O)(=O)c1ccc(N(C)CCN)nc1 [compound 463, N-((2R,4R)-1-((6-((2-aminoethyl)(methyl)amino)pyridin-3-yl)sulfonyl)-2-methylpiperidin-4-yl)-5-cyclopropylisoxazole-3-carboxamide]	0.163 µM	4.33 µM	–	–	–
C[C@@H]1C[C@H](NC(=O)c2cc(C3CC3)on2)CCN1S(=O)(=O)c1ccc(NCCN)nc1 [compound 464, N-((2R,4R)-1-((6-((2-aminoethyl)amino)pyridin-3-yl)sulfonyl)-2-methylpiperidin-4-yl)-5-cyclopropylisoxazole-3-carboxamide]	0.0897 µM	3.3 µM	–	–	–
CC(C)CNc1ccc(S(=O)(=O)N2C3CCCC2CC(NC(=O)c2cc(C4CC4)on2)C3)cn1 (stereo not drawn) [compound 465, 5-cyclopropyl-N-(9-((6-(isobutylamino)pyridin-3-yl)sulfonyl)-9-azabicyclo[3.3.1]nonan-3-yl)isoxazole-3-carboxamide]	3.12 µM	6.16 µM	–	–	–
CNc1ncccc1S(=O)(=O)N1CC[C@H](NC(=O)c2cc(C3CC3)on2)C[C@@H]1C [compound 467, 5-cyclopropyl-N-((2S,4S)-2-methyl-1-((2-(methylamino)pyridin-3-yl)sulfonyl)piperidin-4-yl)isoxazole-3-carboxamide]	3.74 µM	5.76 µM	–	–	–
C[C@H]1C[C@@H](NC(=O)c2cc(C3CC3)on2)CCN1S(=O)(=O)c1cccnc1NCCN [compound 475, N-((2S,4S)-1-((2-((2-aminoethyl)amino)pyridin-3-yl)sulfonyl)-2-methylpiperidin-4-yl)-5-cyclopropylisoxazole-3-carboxamide]	0.0865 µM	1.34 µM	–	–	–
C[C@H]1C[C@@H](NC(=O)c2cc(C3CC3)on2)CCN1S(=O)(=O)c1cccc(C(N)=O)c1 [compound 477, N-((2S,4S)-1-((3-carbamoylphenyl)sulfonyl)-2-methylpiperidin-4-yl)-5-cyclopropylisoxazole-3-carboxamide]	0.932 µM	3.26 µM	–	–	–
C[C@H]1C[C@@H](NC(=O)c2cc(C3CC3)on2)CCN1C(=O)N1CCN(Cc2ccccc2)CC1 [compound 478, N-((2S,4S)-1-(4-benzylpiperazine-1-carbonyl)-2-methylpiperidin-4-yl)-5-cyclopropylisoxazole-3-carboxamide]	> 10 µM	> 10 µM	–	–	–
NCCCS(=O)(=O)N1CCC(NC(=O)c2cc(C3CC3)on2)C[C@@H]1c1ccccc1 (stereo partly drawn) [compound 480, N-((2R)-1-((3-aminopropyl)sulfonyl)-2-phenylpiperidin-4-yl)-5-cyclopropylisoxazole-3-carboxamide]	0.0658 µM	2.24 µM	–	–	–
NCCCS(=O)(=O)N1CCC(NC(=O)c2cc(C3CC3)on2)C[C@H]1c1ccccc1 (stereo partly drawn) [compound 481, N-((2S)-1-((3-aminopropyl)sulfonyl)-2-phenylpiperidin-4-yl)-5-cyclopropylisoxazole-3-carboxamide]	0.479 µM	4.47 µM	–	–	–
C[C@H]1C[C@@H](NC(=O)c2cc(C3CC3)on2)CCN1S(=O)(=O)C1CCOC1 (stereo partly drawn) [compound 482, 5-cyclopropyl-N-((2S,4S)-2-methyl-1-((tetrahydrofuran-3-yl)sulfonyl)piperidin-4-yl)isoxazole-3-carboxamide]	0.928 µM	2.83 µM	–	–	–
C[C@H]1C[C@@H](NC(=O)c2cc(C3CC3)on2)CCN1S(=O)(=O)c1c[nH]cn1 [compound 483, N-((2S,4S)-1-((1H-imidazol-4-yl)sulfonyl)-2-methylpiperidin-4-yl)-5-cyclopropylisoxazole-3-carboxamide]	0.533 µM	2.13 µM	–	–	–
NCCCS(=O)(=O)N1[C@@H]2CC[C@H]1C[C@H](NC(=O)c1cc(C3CC3)on1)C2 [compound 484, N-((1R,3s,5S)-8-((3-aminopropyl)sulfonyl)-8-azabicyclo[3.2.1]octan-3-yl)-5-cyclopropylisoxazole-3-carboxamide]	0.0792 µM	1.44 µM	–	–	–
O=C(NC1CC2CCCC(C1)N2S(=O)(=O)CC1CCCNC1)c1cc(C2CC2)on1 (stereo not drawn) [compound 488, 5-cyclopropyl-N-(9-((piperidin-3-ylmethyl)sulfonyl)-9-azabicyclo[3.3.1]nonan-3-yl)isoxazole-3-carboxamide]	–	–	0.0451 µM	0.857 µM	–
O=C(Nc1ccc(S(=O)(=O)N2[C@@H]3CC[C@H]2C[C@H](NC(=O)c2cc(C4CC4)on2)C3)cc1)c1ccncc1 [compound 489, 5-cyclopropyl-N-((1R,3s,5S)-8-((4-(isonicotinamido)phenyl)sulfonyl)-8-azabicyclo[3.2.1]octan-3-yl)isoxazole-3-carboxamide]	–	–	–	6.66 µM	5.42 µM
O=C1Cc2cc(S(=O)(=O)N3[C@@H]4CC[C@H]3C[C@H](NC(=O)c3cc(C5CC5)on3)C4)c(Cl)cc2N1 [compound 490, N-((1R,3s,5S)-8-((6-chloro-2-oxoindolin-5-yl)sulfonyl)-8-azabicyclo[3.2.1]octan-3-yl)-5-cyclopropylisoxazole-3-carboxamide]	–	–	–	> 10 µM	9.23 µM
O=C(N[C@@H]1C[C@H]2CC[C@@H](C1)N2S(=O)(=O)c1cc2oc(=O)[nH]c2cc1Cl)c1cc(C2CC2)on1 [compound 491, N-((1R,3s,5S)-8-((5-chloro-2-oxo-2,3-dihydrobenzo[d]oxazol-6-yl)sulfonyl)-8-azabicyclo[3.2.1]octan-3-yl)-5-cyclopropylisoxazole-3-carboxamide]	–	–	–	> 10 µM	> 10 µM
O=C1Cc2cc(S(=O)(=O)N3[C@@H]4CC[C@H]3C[C@H](NC(=O)c3cc(C5CC5)on3)C4)ccc2N1 [compound 493, 5-cyclopropyl-N-((1R,3s,5S)-8-((2-oxoindolin-5-yl)sulfonyl)-8-azabicyclo[3.2.1]octan-3-yl)isoxazole-3-carboxamide]	–	–	–	2.75 µM	0.842 µM
O=C(N[C@@H]1C[C@H]2CC[C@@H](C1)N2S(=O)(=O)CCCN1CCOCC1)c1cc(C2CC2)on1 [compound 495, 5-cyclopropyl-N-((1R,3s,5S)-8-((3-morpholinopropyl)sulfonyl)-8-azabicyclo[3.2.1]octan-3-yl)isoxazole-3-carboxamide]	–	–	–	> 10 µM	> 10 µM
O=C(N[C@H]1C[C@H]2CC[C@@H](C1)N2S(=O)(=O)CCCN1CCOCC1)c1cc(C2CC2)on1 [compound 496, 5-cyclopropyl-N-((1R,3r,5S)-8-((3-morpholinopropyl)sulfonyl)-8-azabicyclo[3.2.1]octan-3-yl)isoxazole-3-carboxamide]	–	–	–	0.854 µM	0.162 µM
O=C(N[C@H]1CCN(S(=O)(=O)CCCN2CCOCC2)[C@@H](Cc2ccccc2)C1)c1cc(C2CC2)on1 [compound 497, N-((2S,4S)-2-benzyl-1-((3-morpholinopropyl)sulfonyl)piperidin-4-yl)-5-cyclopropylisoxazole-3-carboxamide]	–	–	–	> 10 µM	> 10 µM
O=C(N[C@H]1CCN(S(=O)(=O)CCCN2CCOCC2)[C@H](Cc2ccccc2)C1)c1cc(C2CC2)on1 [compound 498, N-((2R,4S)-2-benzyl-1-((3-morpholinopropyl)sulfonyl)piperidin-4-yl)-5-cyclopropylisoxazole-3-carboxamide]	–	–	–	> 10 µM	9.96 µM
O=C(N[C@H]1CCN(S(=O)(=O)CCN2CCOCC2)[C@H](Cc2ccccc2)C1)c1cc(C2CC2)on1 [compound 499, N-((2R,4S)-2-benzyl-1-((2-morpholinoethyl)sulfonyl)piperidin-4-yl)-5-cyclopropylisoxazole-3-carboxamide]	–	–	–	> 10 µM	> 10 µM
CC(C)[C@@H]1C[C@H](NC(=O)c2cc(C3CC3)on2)CCN1S(=O)(=O)CCCN [compound 502, N-((2S,4R)-1-((3-aminopropyl)sulfonyl)-2-isopropylpiperidin-4-yl)-5-cyclopropylisoxazole-3-carboxamide]	–	–	–	> 10 µM	0.766 µM
CC(C)[C@H]1C[C@H](NC(=O)c2cc(C3CC3)on2)CCN1S(=O)(=O)CCCN [compound 503, N-((2R,4R)-1-((3-aminopropyl)sulfonyl)-2-isopropylpiperidin-4-yl)-5-cyclopropylisoxazole-3-carboxamide]	–	–	–	> 10 µM	1.06 µM
